Assay results taken from US11731943B2, “Therapeutic compounds, compositions and methods of use thereof” (priority 2016, dated 2023).
Where two headings read alike, the source gives them in different places.

Columns and labels:
[1] = biological target: isolated recombinant JAK1 kinase domain (Homo sapiens (Human), UniProt P23458); assay: JAK1 enzyme assay (Caliper LabChip, Ki); assay type: biochemical
Protocol: (§1) JAK Enzyme Assays were carried out as follows:
(§2) The activity of the isolated recombinant JAK1 and JAK2 kinase domain was measured by monitoring phosphorylation of a peptide derived from JAK3 (Val-Ala-Leu-Val-Asp-Gly-Tyr-Phe-Arg-Leu-Thr-Thr, fluorescently labeled on the N-terminus with 5-carboxyfluorescein) using the Caliper LabChip® technology (Caliper Life Sciences, Hopkinton, Mass.). […] Reactions were incubated at 22° C. in 384-well polypropylene microtiter plates for 30 minutes and then stopped by addition of 25 μL of an EDTA containing solution (100 mM HEPES buffer (pH 7.2), 0.015% Brij-35, 150 mM EDTA), resulting in a final EDTA concentration of 50 mM. After termination of the kinase reaction, the proportion of phosphorylated product was determined as a fraction of total peptide substrate using the Caliper LabChip® 3000 according to the manufacturer's specifications. Ki values were then determined using the Morrison tight binding model (Morrison, J. F., Biochim. Biophys. Acta. 185:269-296 (1969); William, J. W. and Morrison, J. F., Meth. Enzymol., 63:437-467 (1979)) modified for ATP-competitive inhibition [Ki=Ki,app/(1+[ATP]/Km,app)].

[2] = biological target: isolated recombinant JAK2 kinase domain (Homo sapiens (Human), UniProt O60674); assay: JAK2 enzyme assay (Caliper LabChip, Ki); assay type: biochemical
isolated recombinant JAK2 kinase domain, sequence (O60674 849-1124): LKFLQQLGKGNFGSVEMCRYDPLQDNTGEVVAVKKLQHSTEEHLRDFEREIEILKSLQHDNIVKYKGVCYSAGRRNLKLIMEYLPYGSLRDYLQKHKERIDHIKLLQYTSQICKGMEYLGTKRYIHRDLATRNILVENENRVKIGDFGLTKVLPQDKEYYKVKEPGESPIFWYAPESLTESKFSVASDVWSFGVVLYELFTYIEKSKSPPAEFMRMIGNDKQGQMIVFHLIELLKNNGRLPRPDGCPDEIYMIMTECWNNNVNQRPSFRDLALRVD
Protocol: as §1
as §2, with “([…]” for “(Val-Ala-Leu-Val-Asp-Gly-Tyr-Phe-Arg-Leu-Thr-Thr,”, “specifications.” for “specifications. Ki values were then determined using the Morrison tight binding model (Morrison, J. F., Biochim. Biophys. Acta. 185:269-296 (1969); William, J. W. and Morrison, J. F., Meth. Enzymol., 63:437-467 (1979)) modified for ATP-competitive inhibition [Ki=Ki,app/(1+[ATP]/Km,app)].”

isolated recombinant JAK1 kinase domain, sequence (P23458 875-1153): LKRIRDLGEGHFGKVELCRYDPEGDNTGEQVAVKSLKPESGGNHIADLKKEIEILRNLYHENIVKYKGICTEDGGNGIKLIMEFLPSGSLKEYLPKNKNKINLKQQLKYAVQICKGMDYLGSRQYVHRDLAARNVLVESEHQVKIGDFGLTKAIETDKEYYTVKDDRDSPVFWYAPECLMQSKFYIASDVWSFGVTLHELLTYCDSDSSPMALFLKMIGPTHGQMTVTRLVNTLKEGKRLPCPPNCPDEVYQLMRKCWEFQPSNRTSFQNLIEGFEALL

| SMILES | Ki ([1]; read-out: JAK1 Ki) [nM] | Ki [2] [nM] | Ki [1] [nM] |
| --- | --- | --- | --- |
| N#CCC1(n2cc(C(N)=O)c(NC(=O)C3CC3)n2)CCN(Cc2cccc(Cl)c2)CC1 [Example 59] | 4.7 | 35.9 |  |
| N#CCC1(n2cc(C(N)=O)c(NC(=O)C3CC3)n2)CCN(Cc2ccccc2C(F)(F)F)CC1 [Example 61] | 8.3 | 118 |  |
| N#CCC1(n2cc(C(N)=O)c(NC(=O)C3CC3)n2)CCN(Cc2cccc(C(F)(F)F)c2)CC1 [Example 62] | 27.6 | 285 |  |
| N#CCC1(n2cc(C(N)=O)c(NC(=O)C3CC3)n2)CCN(Cc2ccc(C(F)(F)F)cc2)CC1 [Example 63] | 14.4 | 134 |  |
| N#CCC1(n2cc(C(N)=O)c(NC(=O)C3CC3)n2)CCN(Cc2cccc(C#N)c2)CC1 [Example 65] | 13.7 | 123 |  |
| N#CCC1(n2cc(C(N)=O)c(NC(=O)C3CC3)n2)CCN(Cc2cccc(SC(F)(F)F)c2)CC1 [Example 67] | 100 | > 319 |  |
| N#CCC1(n2cc(C(N)=O)c(NC(=O)C3CC3)n2)CCN(Cc2ccc(SC(F)(F)F)cc2)CC1 [Example 68] | 39 | > 319 |  |
| CS(=O)(=O)c1ccccc1CN1CCC(CC#N)(n2cc(C(N)=O)c(NC(=O)C3CC3)n2)CC1 [Example 69] | 15.2 | 124 |  |
| CS(=O)(=O)c1cccc(CN2CCC(CC#N)(n3cc(C(N)=O)c(NC(=O)C4CC4)n3)CC2)c1 [Example 70] | 31 | > 319 |  |
| CS(=O)(=O)c1ccc(CN2CCC(CC#N)(n3cc(C(N)=O)c(NC(=O)C4CC4)n3)CC2)cc1 [Example 71] | 34.1 | > 319 |  |
| N#CCC1(n2cc(C(N)=O)c(NC(=O)C3CC3)n2)CCN(Cc2ccc3cc[nH]c3c2)CC1 [Example 72] | 8.3 | 31.3 |  |
| N#CCC1(n2cc(C(N)=O)c(NC(=O)C3CC3)n2)CCN(Cc2ccc3nc[nH]c3c2)CC1 [Example 73] | 57.3 | 272 |  |
| N#CCC1(n2cc(C(N)=O)c(NC(=O)C3CC3)n2)CCN(Cc2cccc(NS(=O)(=O)c3ccccc3)c2)CC1 [Example 74] | 6.1 | 58.7 |  |
| N#CCC1(n2cc(C(N)=O)c(NC(=O)C3CC3)n2)CCN(Cc2ccc(-c3ccn(C(F)(F)F)n3)cc2)CC1 [Example 83] | 16.1 | 313 |  |
| N#CCC1(n2cc(C(N)=O)c(NC(=O)C3CC3)n2)CCN(Cc2ccc(N3CCCC3)cc2)CC1 [Example 84] | 85 | > 319 |  |
| N#CCC1(n2cc(C(N)=O)c(NC(=O)C3CC3)n2)CCN(Cc2ccc(-n3ccnc3)cc2)CC1 [Example 85] | 45.1 | 170 |  |
| N#CCC1(n2cc(C(N)=O)c(NC(=O)C3CC3)n2)CCN(Cc2ccc(-n3cncn3)cc2)CC1 [Example 86] | 99.7 | > 319 |  |
| N#CCC1(n2cc(C(N)=O)c(NC(=O)C3CC3)n2)CCN(Cc2ccc(-n3cnc4ccccc43)cc2)CC1 [Example 88] | 26.3 | 150 |  |
| N#CCC1(n2cc(C(N)=O)c(NC(=O)C3CC3)n2)CCN(Cc2cnn(-c3ccccc3)c2)CC1 [Example 90] | 7.2 | 133 |  |
| N#CCC1(n2cc(C(N)=O)c(NC(=O)C3CC3)n2)CCN(Cc2ccc3c(c2)CSC3)CC1 [Example 91] | 8.3 | 173 |  |
| N#CCC1(n2cc(C(N)=O)c(NC(=O)C3CC3)n2)CCN(Cc2cccc(OC(F)F)c2)CC1 [Example 92] | 10.9 | 88.1 |  |
| N#CCC1(n2cc(C(N)=O)c(NC(=O)C3CC3)n2)CCN(Cc2cccc(NS(=O)(=O)C(F)(F)F)c2)CC1 [Example 93] | 72.1 | > 319 |  |
| N#CCC1(n2cc(C(N)=O)c(NC(=O)C3CC3)n2)CCN(CCC(F)(F)F)CC1 [Example 96] | 24.1 | 113 |  |

| SMILES | Ki ([1]; read-out: JAK1 Ki) [nM] | Ki [2] [nM] | Ki [1] [nM] |
| --- | --- | --- | --- |
| N#CCC1(n2cc(C(N)=O)c(NC(=O)C3CC3)n2)CCN(Cc2cccc(CN)c2)CC1 [Example 97] | 41 | 163 |  |
| N#CCC1(n2cc(C(N)=O)c(NC(=O)C3CC3)n2)CCN(C2CCN(C(=O)c3ccnc(C(F)(F)F)c3F)CC2)CC1 [Example 98] | 74.6 | 152 |  |
| CN[C@H]1CC[C@](CC#N)(n2cc(C(N)=O)c(NC(=O)C3CC3)n2)CC1 [Example 99] |  | > 319 | 92.2 |
| CN[C@H]1CC[C@@](CC#N)(n2cc(C(N)=O)c(NC(=O)C3CC3)n2)CC1 [Example 100] |  | > 319 | > 562 |
| COC1CN([C@H]2CC[C@](CC#N)(n3cc(C(N)=O)c(NC(=O)C4CC4)n3)CC2)C1 [Example 101] |  | > 319 | > 562 |
| N#CC[C@]1(n2cc(C(N)=O)c(NC(=O)C3CC3)n2)CC[C@H](NC2CCOCC2)CC1 [Example 103] |  | > 319 | 38 |
| N#CC[C@]1(n2cc(C(N)=O)c(NC(=O)C3CC3)n2)CC[C@@H](NC2CCOCC2)CC1 [Example 104] |  | > 319 | > 562 |
| CC1(C)CN([C@H]2CC[C@](CC#N)(n3cc(C(N)=O)c(NC(=O)C4CC4)n3)CC2)C1 [Example 105] |  | > 319 | > 562 |
| CC1(C)CN([C@H]2CC[C@@](CC#N)(n3cc(C(N)=O)c(NC(=O)C4CC4)n3)CC2)C1 [Example 106] |  | 333 | 23.3 |
| N#CC[C@]1(n2cc(C(N)=O)c(NC(=O)C3CC3)n2)CC[C@@H](N2CC3(CCC3)C2)CC1 [Example 108] |  | 205 | 466 |
| N#CC[C@]1(n2cc(C(N)=O)c(NC(=O)C3CC3)n2)CC[C@H](NCc2ccccc2)CC1 [Example 109] |  | > 319 | > 562 |
| N#CC[C@]1(n2cc(C(N)=O)c(NC(=O)C3CC3)n2)CC[C@@H](NCc2ccccc2)CC1 [Example 110] |  | 254 | 5.3 |
| N#CC[C@]1(n2cc(C(N)=O)c(NC(=O)C3CC3)n2)CC[C@H](NCc2ccccc2F)CC1 [Example 111] |  | 87.3 | 9.5 |
| N#CC[C@]1(n2cc(C(N)=O)c(NC(=O)C3CC3)n2)CC[C@@H](NCc2ccccc2F)CC1 [Example 112] |  | > 319 | > 562 |
| N#CC[C@]1(n2cc(C(N)=O)c(NC(=O)C3CC3)n2)CC[C@H](NCc2cccc(F)c2)CC1 [Example 113] |  | 187 | 14.4 |
| N#CC[C@]1(n2cc(C(N)=O)c(NC(=O)C3CC3)n2)CC[C@@H](NCc2cccc(F)c2)CC1 [Example 114] |  | > 319 | > 562 |
| N#CC[C@]1(n2cc(C(N)=O)c(NC(=O)C3CC3)n2)CC[C@H](NCc2ccc(F)cc2)CC1 [Example 115] |  | 300 | 21.9 |
| N#CC[C@]1(n2cc(C(N)=O)c(NC(=O)C3CC3)n2)CC[C@@H](NCc2ccc(F)cc2)CC1 [Example 116] |  | > 319 | 164 |
| N#CC[C@]1(n2cc(C(N)=O)c(NC(=O)C3CC3)n2)CC[C@@H](NCc2ccccc2Cl)CC1 [Example 118] |  | > 319 | > 562 |
| N#CC[C@]1(n2cc(C(N)=O)c(NC(=O)C3CC3)n2)CC[C@H](NCc2ccc(Cl)cc2)CC1 [Example 119] |  | > 319 | 437 |
| N#CC[C@]1(n2cc(C(N)=O)c(NC(=O)C3CC3)n2)CC[C@@H](NCc2ccc(Cl)cc2)CC1 [Example 120] |  | 115 | 12 |
| N#CC[C@]1(n2cc(C(N)=O)c(NC(=O)C3CC3)n2)CC[C@H](NCc2ccc(C#N)cc2)CC1 [Example 121] |  | 282 | 14.6 |
| N#CC[C@]1(n2cc(C(N)=O)c(NC(=O)C3CC3)n2)CC[C@@H](NCc2ccc(C#N)cc2)CC1 [Example 122] |  | > 319 | 562 |
